Measurements reported in patent US7667052B2 (Eisai R&D Management Co., Ltd., priority 2003, dated 2010).

What was measured:
[1] = Solubility (physico-chemical properties of the 11107 analogues); conditions: in dimethylsulfoxide, pyridine, methanol, acetone and water
[2] = system: transcription from VEGF promoter; assay: VEGF transcription-suppressing activity, VEGF-PLAP reporter in U251/1-8 cell; format: cell-based; conditions: Homo sapiens, U-251; U251/1-8 cell, PLAP activity, low oxygen 18 hours; read-out: IC50 values of VEGF transcription-suppressing activity (range given)
In short: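 U251 glioma clone stably carrying a ~2.3 kb human VEGF promoter–secreted PLAP reporter, 4×10^4 cells/well, exposed to 3-fold dilutions of compound for 18 h under low oxygen. Supernatant PLAP read by chemiluminescence at pH 10.0; IC50 = 50% suppression, normoxia 0%, hypoxia 100%.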

Structure (SMILES)	Solubility [1]	IC50 [2] [nM]
CCC(=O)/C(C)=C/C(O)CC(C)/C=C/C=C(\C)C1OC(=O)CC(O)CCC(C)(O)C(OC(C)=O)/C=C/C1C (stereo not drawn) [11107AA]	soluble in dimethylsulfoxide, pyridine, methanol and acetone, and slightly soluble in water	
CCC(=O)C(C)C1OC1CC(C)/C=C/C=C(\C)C1OC(=O)CC(O)CCC(C)(O)C(O)/C=C/C1C (stereo not drawn) [11107AC]	soluble in dimethylsulfoxide, pyridine, methanol and acetone, and slightly soluble in water	
CCC(O)C(C)C1OC1CC(C)/C=C/C=C(\C)C1OC(=O)CC(O)CCC(C)(O)C(OC(C)=O)/C=C/C1C (stereo not drawn) [11107AD]	soluble in dimethylsulfoxide, pyridine, methanol and acetone, and slightly soluble in water	
CCC(O)C(O)CC(C)/C=C/C=C(\C)C1OC(=O)CC(O)CCC(C)(O)C(OC(C)=O)/C=C/C1C (stereo not drawn) [11107AF]	soluble in dimethylsulfoxide, pyridine, methanol and acetone, and slightly soluble in water	
CCC(O)C(C)C(O)C(O)CC(C)CC/C=C(\C)C1OC(=O)CC(O)CCC(C)(O)C(OC(C)=O)/C=C/C1C (stereo not drawn) [11107AG]	soluble in dimethylsulfoxide, pyridine, methanol and acetone, and slightly soluble in water	
CCC(=O)C(C)(O)/C=C/CC(C)/C=C/C1OC(=O)CC(O)CCC(C)(O)C(OC(C)=O)/C=C/C1C (stereo not drawn) [11107AH]	soluble in dimethylsulfoxide, pyridine, methanol and acetone, and slightly soluble in water	
CCC(O)C(C)C1OC1CC(C)/C=C/C=C(\C)C1OC(=O)C(C)C(O)CCC(C)(O)C(O)/C=C/C1C (stereo not drawn) [11107AI]	soluble in dimethylsulfoxide, pyridine, methanol and acetone, and slightly soluble in water	
CCC(O)C(C)C1OC1CC(C)/C=C/C=C(\C)C1OC(=O)CC(O)CCCC(O)/C=C/C1C (stereo not drawn) [11107AK]	soluble in dimethylsulfoxide, pyridine, methanol and acetone, and slightly soluble in water	
CCC(O)C(C)C1OC1CC(C)/C=C/C=C(\C)C1OC(=O)CC(O)CCC2(CO2)C(O)/C=C/C1C (stereo not drawn) [11107AO]	soluble in dimethylsulfoxide, pyridine, methanol and acetone, and slightly soluble in water	
CC(=O)OC1/C=C/C(C)C(/C(C)=C/C=C/C(C)O)OC(=O)CC(O)CCC1C (stereo not drawn) [11107AR]	soluble in dimethylsulfoxide, pyridine, methanol and acetone, and slightly soluble in water	
CC(=O)OC1/C=C/C(C)C(/C(C)=C/C=C/C(C)CC(O)C2OC(C)C(O)C2C)OC(=O)CC(O)CCC1(C)O (stereo not drawn) [11107AS]	soluble in dimethylsulfoxide, pyridine, methanol and acetone, and slightly soluble in water	
CCC1OC(CC(C)/C=C/C=C(\C)C2OC(=O)CC(O)CCC(C)(O)C(OC(C)=O)/C=C/C2C)C(O)C1(C)O (stereo not drawn) [11107AU]	soluble in dimethylsulfoxide, pyridine, methanol and acetone, and slightly soluble in water	
CCC(=O)C(C)C1OC1CC(C)(O)/C=C/C=C(\C)C1OC(=O)CC(O)CCC(C)(O)C(OC(C)=O)/C=C/C1C (stereo not drawn) [11107AV]	soluble in dimethylsulfoxide, pyridine, methanol and acetone, and slightly soluble in water	
CCC(O)C(C)C1OC1CC(C)/C=C/C=C(\C)C1OC(=O)CC(O)CCC(C)(O)C(O)/C=C/C1C (stereo not drawn) [11107A]	soluble in dimethylsulfoxide, pyridine, methanol and acetone, and slightly soluble in water	
CCC(O)C(C)C(O)C(O)CC(C)/C=C/C=C(\C)C1OC(=O)CC(O)/C=C/C(C)(O)C(OC(C)=O)/C=C/C1C (stereo not drawn) [11107BA]	soluble in dimethylsulfoxide, pyridine, methanol and acetone, and slightly soluble in water	
CCC1OC1CC(C)(O)/C=C/C=C(\C)C1OC(=O)CC(O)CCC(C)(O)C(OC(C)=O)/C=C/C1C (stereo not drawn) [11107BB]	soluble in dimethylsulfoxide, pyridine, methanol and acetone, and slightly soluble in water	
CCC(O)C(C)(O)/C=C/CC(C)/C=C/C1OC(=O)CC(O)CCC(C)(O)C(OC(C)=O)/C=C/C1C (stereo not drawn) [11107BC]	soluble in dimethylsulfoxide, pyridine, methanol and acetone, and slightly soluble in water	
CCC(O)C(C)C1OC1CC(C)/C=C/C=C/C1OC(=O)CC(O)CCC(C)(O)C(O)/C=C/C1C (stereo not drawn) [11107BD]	soluble in dimethylsulfoxide, pyridine, methanol and acetone, and slightly soluble in water	

Structure (SMILES)	Solubility [1]	IC50 [2] [nM]
CC(=O)OC1/C=C/C(C)C(/C=C/C(C)C/C=C/C(C)O)OC(=O)CC(O)CCC1(C)O (stereo not drawn) [11107BE]	soluble in dimethylsulfoxide, pyridine, methanol and acetone, and slightly soluble in water	
CCC(O)C(C)C1OC1C(O)C(C)/C=C/C=C(\C)C1OC(=O)CC(O)CCC(C)(O)C(OC(C)=O)/C=C/C1C (stereo not drawn) [11107BF]	soluble in dimethylsulfoxide, pyridine, methanol and acetone, and slightly soluble in water	
CCC(O)C(C)/C=C/C=C(\C)C1OC(=O)CC(O)CCC(C)C(OC(C)=O)/C=C/C1C (stereo not drawn) [11107BJ]	soluble in dimethylsulfoxide, pyridine, methanol and acetone, and slightly soluble in water	
CCC(O)C(C)C(O)C(O)CC(C)/C=C/C=C(\C)C1OC(=O)CC(O)CCC(C)(O)C(OC(C)=O)/C=C/C1C (stereo not drawn) [11107O]	soluble in dimethylsulfoxide, pyridine, methanol and acetone, and slightly soluble in water	
CCC(O)C(C)C1OC1CC(C)/C=C/C=C(\C)C1OC(=O)CC(O)/C=C/C(C)(O)C(O)/C=C/C1C (stereo not drawn) [11107S]	soluble in dimethylsulfoxide, pyridine, methanol and acetone, and slightly soluble in water	
CCC(O)C(C)C1OC1CC(C)/C=C/C=C(\C)C1OC(=O)CC(O)CCC(C)(O)C(OC(=O)NCCN2CCCC2)/C=C/C1C (stereo not drawn) [B64, (8E,12E,14E)-3,6,21-Trihydroxy-6,10,12,16,20-pentamethyl-7-N-(2-(pyrrolidin-1-yl)ethyl)carbamoyloxy-18,19-epoxytricosa-8,12,14-trien-11-olide]		0.5 to 100
CCC(O)C(C)C1OC1CC(C)/C=C/C=C(\C)C1OC(=O)CC(O)CCC(C)(O)C(OC(=O)N2CCN(CC)CC2)/C=C/C1C (stereo not drawn) [B65, (8E,12E,14E)-3,6,21-Trihydroxy-6,10,12,16,20-pentamethyl-7-((4-ethylpiperazin-1-yl)carbonyl)oxy-18,19-epoxytricosa-8,12,14-trien-11-olide]		0.5 to 100
CCC(O)C(C)C1OC1CC(C)/C=C/C=C(\C)C1OC(=O)CC(O)CCC(C)(O)C(OC(=O)N2CCN(CCO)CC2)/C=C/C1C (stereo not drawn) [B66, (8E,12E,14E)-3,6,21-Trihydroxy-6,10,12,16,20-pentamethyl-7-((4-(2-hydroxyethyl)piperazin-1-yl)carbonyl)oxy-18,19-epoxytricosa-8,12,14-trien-11-olide]		0.5 to 100
CCC(O)C(C)C1OC1CC(C)/C=C/C=C(\C)C1OC(=O)CC(O)CCC(C)(O)C(OC(=O)N2CC(C)NCC2C)/C=C/C1C (stereo not drawn) [B67, (8E,12E,14E)-3,6,21-Trihydroxy-6,10,12,16,20-pentamethyl-7-((2,5-dimethylpiperazin-1-yl)carbonyl)oxy-18,19-epoxytricosa-8,12,14-trien-11-olide]		0.5 to 100
CCC(O)C(C)C1OC1CC(C)/C=C/C=C(\C)C1OC(=O)CC(O)CCC(C)(O)C(OC(=O)NC(=O)CCl)/C=C/C1C (stereo not drawn) [B69, (8E,12E,14E)-7-(N-Chloroacetyl)carbamoyloxy-3,6,21-trihydroxy-6,10,12,16,20-pentamethyl-18,19-epoxytricosa-8,12,14-trien-11-olide]		0.5 to 100
CC/C(=N\OC)C(C)C1OC1CC(C)/C=C/C=C(\C)C1OC(=O)CC(O)CCC(C)(O)C(OC(C)=O)/C=C/C1C (stereo not drawn) [B74, (8E,12E,14E)-7-Acetoxy-3,6-dihydroxy-21-methoxyimino-6,10,12,16,20-pentamethyl-18,19-epoxytricosa-8,12,14-trien-11-olide]		0.5 to 100
CC/C(=N\OCc1ccccc1)C(C)C1OC1CC(C)/C=C/C=C(\C)C1OC(=O)CC(O)CCC(C)(O)C(OC(C)=O)/C=C/C1C (stereo not drawn) [B75, (8E,12E,14E)-7-Acetoxy-21-benzyloxyimino-3,6-dihydroxy-6,10,12,16,20-pentamethyl-18,19-epoxytricosa-8,12,14-trien-11-olide]		0.5 to 100
CCC(O)C(C)C1OC1CC(C)/C=C/C=C(\C)C1OC(=O)CC(O)CCC(C)(O)C(OC(=O)N2CCC(N3CCCCC3)CC2)/C=C/C1C (stereo not drawn) [B77]		0.5 to 100
CCC(O)C(C)C1OC1CC(C)/C=C/C=C(\C)C1OC(=O)CC(O)CCC(C)(O)C(OC(=O)NCCCN2CCN(C)CC2)/C=C/C1C (stereo not drawn) [B78, (8E,12E,14E)-3,6,21-Trihydroxy-6,10,12,16,20-pentamethyl-7-N-(3-(4-methylpiperazin-1-yl)propyl)carbamoyloxy-18,19-epoxytricosa-8,12,14-trien-11-olide]		0.5 to 100
CCC(O)C(C)C1OC1CC(C)/C=C/C=C(\C)C1OC(=O)CC(O)CCC(C)(O)C(OC(=O)NC2CCN(C)CC2)/C=C/C1C (stereo not drawn) [B79, (8E,12E,14E)-3,6,21-Trihydroxy-6,10,12,16,20-pentamethyl-7-N-(1-methylpiperidin-4-yl)carbamoyloxy-18,19-epoxytricosa-8,12,14-trien-11-olide]		0.5 to 100
CCC(O)C(C)C1OC1CC(C)/C=C/C=C(\C)C1OC(=O)CC(O)CCC(C)(O)C(OC(=O)N(C)C2CCN(C)CC2)/C=C/C1C (stereo not drawn) [B80, (8E,12E,14E)-3,6,21-Trihydroxy-6,10,12,16,20-pentamethyl-7-N-methyl-N-(1-methylpiperidin-4-yl)carbamoyloxy-18,19-epoxytricosa-8,12,14-trien-11-olide]		0.5 to 100
CCC(O)C(C)C1OC1CC(C)/C=C/C=C(\C)C1OC(=O)CC(O)CCC(C)(O)C(OC(=O)N2CC(C)NC(C)C2)/C=C/C1C (stereo not drawn) [B81, (8E,12E,14E)-3,6,21-Trihydroxy-6,10,12,16,20-pentamethyl-7-((3,5-dimethylpiperazin-1-yl)carbonyl)oxy-18,19-epoxytricosa-8,12,14-trien-11-olide]		0.5 to 100
CCC(O)C(C)C1OC1CC(C)/C=C/C=C(\C)C1OC(=O)CC(O)CCC(C)(O)C(OC(=O)NC2CC(C)(C)N(C)C(C)(C)C2)/C=C/C1C (stereo not drawn) [B82, (8E,12E,14E)-3,6,21-Trihydroxy-6,10,12,16,20-pentamethyl-7-N-(1,2,2,6,6-pentamethylpiperidin-4-yl)carbamoyloxy-18,19-epoxytricosa-8,12,14-trien-11-olide]		0.5 to 100
